Experimental data: patent US20090123940A1, “MOLECULES INVOLVED IN SYNAPTOGENESIS AND USES THEREFOR” (THE JOHNS HOPKINS UNIVERSITY, priority 2007, published 2009)
Ends that are not written are not given here.

Tests used:
[1] = system: NPR cleavage at Site A (TACE); assay: NPR cleavage assay in transfected HEK293T cells; format: cell-based, rat; conditions: TAPI-2 50 μM; GM6001 25 μM
Protocol: Cleavage Assay HEK293T cells were plated in OptiMEM (Invitrogen, Carlsbad, Calif.) containing 5% FBS onto 6-well dishes at a density of 4×10^5 cells/mL (2 mL/well) 1 day before transfection. Cells were transfected with NPR in pRK5 using LipofectAMINE 2000 (Invitrogen, Carlsbad Calif.). After 24 hr the medium was replaced with serum-free OptiMEM. […] Samples from each well were obtained at specific time points, immediately placed on ice, centrifuged at 15,000 g to remove cell debris, and then treated with 2% β-mercaptoethanol containing loading buffer. At the end of the time course, the cells were lysed with RIPA buffer, centrifuged to remove cell debris, and treated with 2% β-mercaptoethanol in loading buffer. Samples (20 μL of medium or lysate diluted to 1/5) were run on SDS-PAGE gels and analyzed by Western blotting.

[2] = system: Purkinje cells cultured from embryonic mouse cerebellum; assay: LTD of glutamate-evoked inward current in cultured Purkinje cells (glutamate test pulses paired with depolarizing steps); format: cell-based; conditions: t=40 min; TAPI-2 10 μM, GM6001 1 μM, GM6001 control compound 1 μM; n=7
Protocol: (§1) Recording and Ca^2+ imaging in cerebellar cultures. Cultures of embryonic mouse cerebellum were prepared as previously described and recordings were performed according to our previously published method (Leitges et al., Neuron 44:585-94, 2004). […]. Test pulses were delivered using negative current pulses (300-700 nA, 30-80 msec duration). LTD-inducing pairing stimuli consisted of six, 3-s-long depolarizations to 0 mV, each delivered together with a test pulse of glutamate.
(§2) Membrane currents were recorded with an Axopatch 200A amplifier, and digitized at 10 kHz for exogenous glutamate responses and 20 kHz for mEPSCs. Signals were lowpass filtered at 5 kHz (1 kHz for mEPSCs) and acquired using Axograph X software (Axograph Scientific, Sydney, Australia). Recordings in which Rinput or Rseries varied by more than 10% were excluded from the analysis. For analysis of mEPSCs, Axograph X mini analysis software was used. This detected events based on closeness of fit of the mEPSC to a sliding template. Events smaller than − ? 4 pA were discarded. A separate template was created for each recording by averaging 30 of its most unambiguous mEPSCs as selected by eye.
Other studies have shown that LTD in Purkinje cells cultured from embryonic mouse cerebellum requires activation of mGluR1, and is expressed postsynaptically as a reduction in surface AMPA receptors (Chung et al., Science 300:1751-5, 2003; Leitges et al., Neuron 44:585-94, 2004; Linden, PNAS 98:14066-71, 2001; Matsuda et al., EMBO J. 19:2765-74, 2000; Steinberg et al., Neuron 49:845-60, 2006; Wang and Linden, Neuron 25:635-47, 2000). Here, LTD was examined using a purely postsynaptic model in which iontophoretic test pulses of glutamate are applied to voltage-clamped Purkinje cells in culture. Following a baseline recording period, LTD was induced by pairing six 3 sec long depolarizing steps to 0 mV with six glutamate test pulses. When test pulses were resumed after pairing, LTD of the glutamate-evoked inward current was evident (52±9.0% of baseline at t=40 min, n=7 cells, FIG. 6A). […]

[3] = system: cultured cerebellar Purkinje cells; assay: Basal electrophysiological properties and Ca2+ imaging in cultured cerebellar Purkinje cells; format: cell-based, mouse; conditions: TAPI-2 10 μM; GM6001 1 μM; GM6001 control 1 μM; mean ± SEM
Protocol: as §1, §2
Bis-Fura-2 ratio imaging of intracellular free Ca^2+ in the dendritic shafts of cultured Purkinje cells was accomplished by measuring the background corrected fluorescence ratio at 340 and 380 nm excitation using a cooled CCD camera system. In these experiments, EGTA was removed from the internal saline and replaced with 100 μM bis-Fura-2.

Narp = target: T1, Narp (Rattus norvegicus, UniProt P97738); assay: In vitro binding (GST pull down) with myc-Narp
T1 construct: GST-tagged GluR1-12mer (GST-G1-12mer) and myc-tagged full length Narp; made in house; host or cells: 293T cells (myc-Narp, cleared lysate); E. coli (GST fusions, pGEX-4T-2)
T1 sequence (P97738 15-432): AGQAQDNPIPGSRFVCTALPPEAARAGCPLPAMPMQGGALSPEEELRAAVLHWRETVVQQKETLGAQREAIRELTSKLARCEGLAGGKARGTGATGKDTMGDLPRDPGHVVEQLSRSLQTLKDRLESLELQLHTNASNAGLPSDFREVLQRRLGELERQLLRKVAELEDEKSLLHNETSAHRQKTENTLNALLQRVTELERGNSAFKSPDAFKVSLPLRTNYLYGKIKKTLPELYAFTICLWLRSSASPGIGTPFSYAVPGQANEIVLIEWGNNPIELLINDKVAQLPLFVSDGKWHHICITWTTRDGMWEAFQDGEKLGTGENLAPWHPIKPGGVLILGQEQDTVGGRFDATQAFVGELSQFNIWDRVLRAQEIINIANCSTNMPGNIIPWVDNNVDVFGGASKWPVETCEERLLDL
Protocol: In Vitro Binding. Polynucleotides encoding NAR fragments were subcloned into pGEX-4T-2 vector (Amersham) in the EcoRI and SalI sites. The constructs were confirmed by restriction enzyme digestion, DNA sequencing and fusion protein expression. GST-fusion proteins were purified by bacterial inoculation of one clone containing GST-fusion protein plasmid into 5 mL of LB liquid medium and cultured at 37 C overnight. Cultured bacteria was transferred into 400 mL of LB liquid medium and cultured at 30 C for 3 hours. Protein expression was induced with 5 mM IPTG and the bacteria were cultured at 30 C for another 2 hours. A bacterial pellet was collected and resuspended in 10 mL of lysis buffer (pH 7.4 PBS containing 10 mM sodium pyrophosphate, 1 mM sodium orthovanadate, 1% triton and 0.1% PMSF), sonicated for 10 seconds, 3 times at 4 C. Debris was pelleted with centrifugation at 12,000 rpm at 4 C for 10 minutes. The supernatant was incubated with Glutathione Sepharose 4B beads (Pharmacia) with agitation at 4 C for 2 hours. Beads were washed with lysis buffer+1% triton+0.1% PMSF twice; lysis buffer+PMSF twice; PBS+0.5M NaCl once; and PBS twice. The fusion protein bound beads were then used in the in vitro binding assay. Purified Narp protein preparation was accomplished by splitting 293T cells is into 100 mm culture dishes at the density of 5×10^5 cells/mL. […]

GluR1 = assay: Immunocytochemical staining of surface and internalized GluR1 in cultured hippocampal neurons; format: cell-based; conditions: 50 μM DFB added 5 min before DHPG stimulation
Protocol: Immunocytochemical staining. Immunocytochemical staining of heterologous cells was performed as described (Xu et al., supra). For PMA-stimulation experiments, PMA (Sigma Cat #: P8139) at (150 nM) was added 90 minutes prior to live staining. Images were viewed and captured using Nikon E800 epifluorescence microscope fitted with a Princeton Instruments CCD camera. For live staining, neurons cultured on coverslips were incubated at 10° C. with the appropriate primary antibodies at the indicated dilutions in conditioned culture medium for 20 min. They were then washed with PBS and fixed with 4% paraformaldehyde/4% sucrose in PBS for 20 min at room temperature. Cells were permeablized with 0.2% Triton X-100 in PBS for 5 min and then blocked in 10% normal goat serum in PBS for 1 hr at room temperature. If intracellular proteins were of interest, coverslips were then incubated with antibody diluted in 10% normal goat serum for 1 hr at room temperature or overnight at 4° C. Coverslips were washed with PBS and incubated with secondary antibody conjugated to Alexa488 and Alexa555 (1:500 in 10% normal goat serum, Molecular Probes Eugene, Oreg.). Coverslips were mounted using the Prolong Antifade Kit (Molecular Probes, Eugene, Oreg.). For immunocytochemistry studies, mGluR1/5 were activated using the selective agonist (S)-DHPG (Tocris Cat.# 0805) with mGluR5 allosteric potentiator DFB (Tocris Cat.#1625). Neurons were incubated with DFB (50 μM) for 5 min and then DHPG (50 μM) for an additional 5 min in neuronal incubation medium and then transferred into the original incubation medium. […] Cells were incubated at 37° C. to allow endocytosis. At indicated time points, cells were incubated with N-terminal GluR1 mouse antibody (JH 4093; 0.2 μg/100 μl; kind gift from T. […] (to block endocytosis during staining). Cells were then processed for immunofluorescent staining as described above. An acid strip protocol was employed to measure endocytosed antibody labeled GluR1 (Snyder et al., 2001). Neurons were washed with progressively cooler NIM to slow basal endocytosis. Cells were then live labeled at 10° C. with GluR1 N-terminal antibody (0.2 μg/100 μL JH4094) antibody in NIM for 20 min. After washing unbound excess antibody, cells were incubated sequentially with DFB, DHPG, and original incubation medium at 37° C., as described above. After appropriate incubation times, cells were washed with 4° C. TBS. […] Neurons were then washed with 4° C. TBS followed by processing for immunofluorescent staining as described above. All neurons were viewed and captured using UltraVIEW spinning disk confocal microscope (PerkinElmer Life Sciences, Wellesley, Mass., USA) with a Nikon Eclipse TE 200 microscope and a 63× objective (Nikon, Melville, N.Y.). Images were acquired and saved as Tiff files with a dynamic range of 65536 grey levels (16-bit binary). Image analysis was performed using Metamorph imaging software (Universal Imaging, Downingtown, Pa.). For quantification of the punctate structures (e.g. GluR1), images were thresholded by grey value to differentiate single puncta. Segments of dendrites were selected and number of puncta was calculated per […] of length dendrite. Figures show ratios of calculated mean densities (number of puncta per unit length) from treated/control. Error bars were calculated using SEM and Gaussian error propagation. n=number of measured dendrites. Significance was determined by paired Student's T-test.

Compound | glutamate-evoked inward current after LTD induction [2] | DHPG-evoked (dendritic Ca2+ transient) [3] [nM] | Depol-evoked (dendritic Ca2+ transient) [3] [nM] | Resting Ca2+ [3] [nM] | mEPSC 10-90% rise [3] [msec] | mEPSC 50% decay [3] [ms] | mEPSC amp [3] [pA] | other results
CNC(=O)[C@H](Cc1c[nH]c2ccccc12)NC(=O)[C@@H](CC(=O)NO)CC(C)C [GM6001] | 106±8.4 % of baseline | 268 ± 39 | 557 ± 65 | 123 ± 27 | 2.0 ± 0.3 | 8.0 ± 0.6 | 25 ± 6 | PMA-stimulated cleavage at Site A / secretion of LFC-NPR into the medium [1]: inhibited
GST-G1-12mer: bacteria GST-tagged GluR1-12mer (LRRQRIDISRRG; also: GST tag, end not given here) |  |  |  |  |  |  |  | pull down of myc-tagged full length Narp (Narp; GST fusion proteins): pulls down Narp
G1-12mer peptide: synthetic 12 amino acid GluR1 NAR1 sequence, Narp binding motif LRRQRIDISRRG (SEQ ID NO:24) (listed as Homo sapiens) |  |  |  |  |  |  |  | in vitro binding between GST-G1-NarI and Narp (Narp; synthetic peptide added): blocked
CNC(=O)C(Cc1c[nH]c2ccccc12)NC(=O)C(CC(C)C)NC(=O)OC(C)(C)C (stereo not drawn) [GM6001 control compound] | 48±9.8 % of baseline | 277 ± 42 | 526 ± 55 | 100 ± 25 | 1.6 ± 0.3 | 7.6 ± 0.7 | 26 ± 6 | 
Fc1cccc(C=NN=Cc2cccc(F)c2)c1 [DFB, 3,3′-difluorobenzaldazine] |  |  |  |  |  |  |  | consistency of the DHPG-evoked response (GluR1): increased the consistency of the DHPG-evoked response
